Measured values: paper PMC10824102, “Identification of small molecule inhibitors of G3BP-driven stress granule formation” (The Journal of Cell Biology, 2024)

What was measured:
[1] = tested on: G3BP1 and FUS R495X puncta in U2OS cells with tdTomato-tagged endogenous G3BP1; assay: Pretreatment before FUS R495X transfection, cytoplasmic puncta area; format: cell-based; conditions: 50 μM, 20 min before FUS R495X transfection, 24 h
Description: U2OS cells with knock-in of G3BP1-tdTomato ([Yang et al., 2020]) were seeded into 96-well plates (3904; Corning). Either GFP-VCP-A232E or GFP-FUS-R495X were transfected into cells using ViaFect transfection reagent (Promega) 24 h prior to the start of the experiment. For samples to be treated with compounds G3Ia or G3Ia′, Hoechst (1:5,000; Biotium) was added and incubated for 30 min prior to the start of the experiment, washed once with PBS, and the media was changed to 100 μl FluoroBrite DMEM media (Gibco) upon starting the experiment. Imaging of plates was performed on a Cytation C10 spinning disk confocal (BioTek) with a Hamamatsu Orca-Flash 4.0 camera using Gen5 software (version 3.11). Imaging was performed through an Olympus Plan Apo 40× 0.6 NA dry objective with an adjustable collar set to 0.5 μm thickness. Laser autofocus prior to imaging the tdTomato channel was utilized for each image. The temperature was maintained at 37°C on the instrument and the cells were supplied with 5% CO2. A 7 × 7 tilescan was taken at the center of each well, capturing the tdTomato and GFP channels (and Hoechst when present). After completing the tilescan, 100 μl FluoroBrite with 100 μM (2×) G3I compound (vortexed for 5 s) was added to each well and incubated for 20 min before starting another round of imaging in the same locations as the first round. Samples treated with G3Ib or G3Ib′ were analyzed manually, scoring each cell with spontaneous granules for the presence or absence of granules following treatment with the compound. For experiments in which G3I compounds were pretreated prior to transfection, 50 μM of indicated compound or vehicle control were added to U2OS cells 20 min prior to the addition of the transfection reagent. After 24 h of transfection, the cells were washed with PBS, fixed in 4% formaldehyde, and incubated with Hoechst (1:5,000; Biotium) in PBS for 30 min prior to the start of the experiment, washed once with PBS, and at room temperature imaging on the Cytation C10 spinning disk confocal was performed as described above.
Samples treated with G3Ia or G3Ia′ were analyzed using an automated pipeline. Segmentation was performed in both ilastik and Cellpose 2.0. Nuclear segmentation using the Hoechst channel and granule segmentation in both GFP and tdTomato channels was performed via pixel classification in ilastik using small cropped portions of the tilescan as the training dataset for each. Individual cell segmentation was performed in Cellpose 2.0 by inputting a merged RGB of the Hoechst and G3BP1-tdTomato channels. The Cellpose output was then eroded by one pixel and set as a binary mask in Fiji. […]

[2] = tested on: stress granule formation in human iPSC-derived cortical neurons; assay: Stress granule formation in iPSC-derived cortical neurons (co-incubation); format: cell-based; conditions: 50 μM co-incubated with or without 500 μM NaAsO2 for 60 min
Description: i3N iPSC clones were gifts from Michael E. Ward (National Institutes of Health, Bethesda, MD, USA) and were used to generate a G3BP1-mNeongreen knock-in iPSC line. iPS neurons were differentiated with a two-step protocol (predifferentiation and maturation) as previously described ([Wang et al., 2017]). For predifferentiation, iPSCs were incubated with 1 µg/ml doxycycline hyclate (Sigma-Aldrich) for 3 days at a density of 1.2 × 10^6 cells/well in six-well dishes coated with Matrigel in knockout DMEM (KO-DMEM)/F12 medium (Thermo Fisher Scientific) containing N2 supplement (Thermo Fisher Scientific), non-essential amino acids (NEAA; Thermo Fisher Scientific), GlutaMAX Supplement (Thermo Fisher Scientific), and Y-27632 ([…] Technologies). The medium was changed daily and Y-27632 was removed from day 2. For maturation, predifferentiated precursor cells were dissociated, counted, and subplated at 25 × 10^4 cells/ml on dishes coated with 50 μg/ml poly-L-ornithine in BrainPhys neuronal medium ([…] Technologies) containing N2 (Thermo Fisher Scientific), B-27, 20 ng/ml BDNF (PeproTech), 20 ng/ml GDNF (PeproTech), 500 µg/ml dibutyryl cyclic-AMP (Sigma-Aldrich), 200 nM L-ascorbic acid (Sigma-Aldrich), 1 µg/ml natural mouse laminin (Thermo Fisher Scientific), 1 μM Ara-C (Sigma-Aldrich), and 1 µg/ml doxycycline hyclate. Half-medium was changed every other day. […]

[3] = target: T1, co-condensation of RNA, G3BP1, and caprin 1 (Homo sapiens, UniProt Q13283); assay: In vitro LLPS, three-component system (G3BP1, caprin 1, RNA); format: biochemical; conditions: for IC50, inhibition of G3BP1-GFP in vitro phase separation / LogIC50, inhibition of G3BP1-GFP in vitro phase separation / IC50: 1.5 μM G3BP1, 1.5 μM caprin 1, 20 ng/μl total RNA; for IC50: read-out: IC50, inhibition of G3BP1-GFP in vitro phase separation; for co-condensation of caprin 1, G3BP1, and RNA: result in words; for HillSlope, inhibition of G3BP1-GFP in vitro phase separation: slope at the steepest part of the curve; for Bottom (lowest value of curve), percent inhibition of in vitro phase separation / Top (highest value of curve), percent inhibition of in vitro phase separation: three-component system
T1 construct: made in house; host or cells: E. coli BL21 (DE3)
T1 sequence (Q13283 whole entry): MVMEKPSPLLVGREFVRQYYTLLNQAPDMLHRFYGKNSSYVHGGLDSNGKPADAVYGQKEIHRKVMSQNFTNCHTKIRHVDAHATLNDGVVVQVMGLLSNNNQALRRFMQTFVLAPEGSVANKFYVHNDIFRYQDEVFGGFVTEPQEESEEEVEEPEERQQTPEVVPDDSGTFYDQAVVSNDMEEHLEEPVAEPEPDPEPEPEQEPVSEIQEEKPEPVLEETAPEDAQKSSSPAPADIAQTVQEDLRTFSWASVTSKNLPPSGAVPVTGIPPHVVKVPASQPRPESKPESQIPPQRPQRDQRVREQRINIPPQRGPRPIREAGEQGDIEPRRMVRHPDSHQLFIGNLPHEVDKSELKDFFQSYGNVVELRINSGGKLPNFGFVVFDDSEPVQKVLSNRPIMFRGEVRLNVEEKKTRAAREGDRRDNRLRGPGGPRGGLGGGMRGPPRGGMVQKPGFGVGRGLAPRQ
T1 sequence (Q13283 whole entry): as above
Description: (§1) LLPS assays were performed in 30 μl total volume at 25°C at pH 7.4 in buffer containing 37 mM Tris, pH 7.5, 116 mM NaCl, 0.33% NP-40, 2.6% glycerol, 0.5 mM DTT with 20 ng/μl total cellular RNA from U2OS cells and 1.425 μM G3BP1, 0.075 μM FLAG-GFP-G3BP1, and 1.5 μM caprin 1. Reactions were initiated by adding G3BP1/caprin 1 protein mix to cellular RNA, followed by 3 min of shaking at 450 rpm and then incubation for 70 min in the dark. For condensates formed with G3BP1 and RNA, 20 μM purified G3BP1 and 100 ng of total cellular RNA from HEK293T cells were added to a buffer consisting of 100 mM NaCl and 16.7 mM HEPES (pH 7.5) in the presence of the indicated dose of G3Ib or vehicle control.

[4] = target: T2, condensate formation by G3BP1 and RNA (Homo sapiens, UniProt Q13283); assay: In vitro LLPS, two-component system (G3BP1 and RNA); format: biochemical; conditions: 20 μM G3BP1, 100 ng RNA, up to 166 μM compound
T2 construct: made in house; host or cells: E. coli BL21 (DE3)
T2 sequence (Q13283 whole entry): as above
Description: as §1

| SMILES | area of G3BP1 found in puncta compared with vehicle-treated cells [1] | formation and incorporation of FUS R495X into cytoplasmic granules [1] | spontaneous and arsenite-induced stress granule formation [2] | IC50, inhibition of G3BP1-GFP in vitro phase separation [3] | LogIC50, inhibition of G3BP1-GFP in vitro phase separation [3] | LogIC50, inhibition of G3BP1-GFP in vitro phase separation ([3]; listed as G3Ia') | IC50 [3] | co-condensation of caprin 1, G3BP1, and RNA [3] | HillSlope, inhibition of G3BP1-GFP in vitro phase separation [3] | HillSlope, inhibition of G3BP1-GFP in vitro phase separation ([3]; listed as G3Ia') | Bottom (lowest value of curve), percent inhibition of in vitro phase separation [3] | Top (highest value of curve), percent inhibition of in vitro phase separation [3] | condensate formation by G3BP1 and RNA [4] | LogIC50, inhibition of G3BP1-GFP in vitro phase separation ([3]; listed as G3Ib') | HillSlope, inhibition of G3BP1-GFP in vitro phase separation ([3]; listed as G3Ib') |
| --- | --- | --- | --- | --- | --- | --- | --- | --- | --- | --- | --- | --- | --- | --- | --- |
| COCCC(NC(=O)C(C)NC(=O)C(NC(=O)C(NC(=O)C(F)CC(C)(C)C)C(C)(C)O)C(C)c1ccccc1)C(=O)N(C)Cc1ccccc1 (stereo not drawn) [G3Ia] | reduced the area of G3BP1 found in puncta | failed to block the formation and incorporation of FUS R495X into cytoplasmic granules | blocked both spontaneous and arsenite-induced stress granule formation | Unstable | 0.6508 | Unstable | 4.48 µM | disrupted the co-condensation | 1.354 | Unstable | Unstable | Unstable | – | – | – |
| CC(NC(=O)C(NC(=O)C(NC(=O)CCC(C)(C)C)C(C)(C)O)C(C)c1ccccc1)C(=O)N1CCCC1c1ccccc1 (stereo not drawn) [G3Ib] | reduced the area of G3BP1 found in puncta | failed to block the formation and incorporation of FUS R495X into cytoplasmic granules | – | Unstable | 0.5379 | – | 3.45 µM | disrupted the co-condensation | 1.004 | – | 4.401 | 1.518 | unaffected | Unstable | Unstable |
